Test results: PubChem BioAssay AID1918955 (Molecular Pharmacology Branch, DTP, NCI, 2023)
Where “and” joins values, the source holds several entries; their conditions need not be identical. Equal values may be shown once.

Test system: NCI/ADR-RES complex spheroid viability
Assay: Anticancer human tumor NCI/ADR-RES cell line growth inhibition;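 further: spheroids exposed to compounds for 7 days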;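 on viability, T/C: 100% = DMSO vehicle treated spheroids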
Details: for viability, T/C: stronger effect = lower value
Excerpt: Multicellular complex tumor spheroid response to LSD1 Inhibitor Iadademstat in combination with a variety of drugs and investigational agents in selected tumor cell lines
The current study was undertaken to assess response to LSD1 inhibitors in combination with standard-of-care drugs and investigational agents in solid tumor complex spheroid models as well as in the K-562 leukemia. Complex spheroids include a stromal component modeled by human endothelial cells (HUVEC) and fibroblasts modeled by human mesenchymal stem cells (MSCs). The concentration ranges selected for each drug and investigational agent were based upon clinically achievable concentrations if the clinical Cmax of the agent was known.
Compounds. The drugs and investigational agents used in this study are listed on Table 1. All of the agents used, including staurosporine (NSC755774) and gemcitabine (NSC613327), were obtained from the Developmental Therapeutics Program, NCI. FDA-approved anticancer drugs are available from the NCI at http://dtp.nci.nih.gov/branches/dscb/oncology_drugset_explanation.html. Drugs and investigational agents were >95% pure by proton nuclear magnetic resonance (NMR) and liquid chromatography/mass spectrometry (LC/MS). Stock solutions were prepared at 400x in DMSO, stored at -70 degrees C, and diluted in fresh medium prior to their use. The final concentration of DMSO in cell culture wells never exceeded 0.25% (v/v). The FDA-approved anticancer drug set is available from the Developmental Therapeutics Program at https://dtp.cancer.gov/organization/dscb/obtaining/available_plates.htm. All drugs and investigational agents were tested over a range starting from a high concentration at or near the clinical Cmax and decreasing in half-log increments. If the clinical Cmax for an agent had not been determined, the highest concentration tested was 10 microM.
Cell Lines. The patient-derived cancer cell (PDC) lines: 292921-168-R-J2-PDC, K24384-001-R-PDC, and 521955-158-R2-J5-PDC pancreatic carcinomas, 556581-035-R-J1 ovarian carcinoma, 324938-238-R-J1-PDC, 855422-203-R-J1-PDC and 883617-216-R-J1-PDC urothelial bladder carcinomas, 743489-274-T-PDC renal cell carcinoma, 138582-R-J1 Merkel cell tumor, K60290-347-R-J1 and K57222-313-R-J1-PDC glioblastomas, 653999-131-R-J2-PDC, LG0703-F948-PDC, and 349418-098-R-PDC non-small cell lung carcinomas, 885512-296-R-J2-PDC, 171881-019-R-J1-PDC breast carcinomas and 186277-243-T-J2-PDC and 233499-124-R-J2-PDC colon carcinomas were obtained from the NCI Patient-Derived Models Repository (PDMR, https://pdmr.cancer.gov). The established cell lines NCI/ADR-RES (RRID:CVCL_14520 and OVCAR-5 (RRID:CVCL_1628) ovarian carcinomas, 786-O (RRID:CVCL_1051) and A498 (RRID:CVCL_A498) renal cell carcinoma, NCI-H211 (ATCC, cat. CRL-5824; RRID:CVCL_1529), NCI-H196 (ATCC, cat. CRL-5823, RRID:CVCL_1509), SW 1271 (ATCC, cat. CRL-2177, RRID:CVCL_1716) and NCI-H1876 (ATCC, cat. CRL-5902, RRID:CVCL_1503) small cell lung carcinomas, MDA-MB-231 (RRID:CVCL_0062) and MDA-MB-468 (RRID:CVCL_0419)breast carcinomas (10-12). Pooled donor human umbilical vein endothelial cells (HUVEC, Lonza, cat. CC-2519) and human mesenchymal stem cells (hMSC, Lonza, cat. PT-2501) were purchased from Lonza (Walkersville, MD).
Cell Culture. All cells were maintained in an incubator at 37 degrees C and 5% CO2 with 95% humidity. The PDC lines were cultured according to standard operating procedures established by the NCI PDMR (https://pdmr.cancer.gov). Briefly all PDCs were thawed and cultured in Matrigel-coated flasks prepared with a working solution of 1X Ham's F-12 nutrient mix, without supplementation (Invitrogen, Waltham, MA, cat. 11765054), 100 U/mL penicillin-streptomycin (Invitrogen, cat. 15140122), and 2.5% Matrigel (Corning Inc., Corning, NY, cat. 354248) for the first three passages. […]

O=C(C=Cn1cnc(-c2cc(C(F)(F)F)cc(C(F)(F)F)c2)n1)NNc1cnccn1 + NC1CCC(NC2CC2c2ccccc2)CC1
IC50 (curve of first compound, second compound 0.1 µM): 6.5 nM
IC50 (curve of first compound, second compound 0.316 µM): 5.82 nM
IC50 (curve of first compound, second compound 1 µM): 5.77 nM
IC50 (curve of first compound, second compound 3.16 µM): 4.94 nM
IC50 (curve of first compound, second compound 10 µM): 3.46 nM
viability, T/C (second compound 0.1 µM, first compound 0.00316 µM): 80.1%
viability, T/C (second compound 0.1 µM, first compound 0.01 µM): 29.1%
viability, T/C (second compound 0.1 µM, first compound 0.0316 µM): 17.7%
viability, T/C (second compound 0.1 µM, first compound 0.1 µM): 13.6%
viability, T/C (second compound 0.1 µM, first compound 0.316 µM): 5.76%
viability, T/C (second compound 0.1 µM, first compound 1 µM): 2.44%
viability, T/C (second compound 0.316 µM, first compound 0.00316 µM): 72.3%
viability, T/C (second compound 0.316 µM, first compound 0.01 µM): 26.2%
viability, T/C (second compound 0.316 µM, first compound 0.0316 µM): 18.8%
viability, T/C (second compound 0.316 µM, first compound 0.1 µM): 21.9%
viability, T/C (second compound 0.316 µM, first compound 0.316 µM): 4.73%
viability, T/C (second compound 0.316 µM, first compound 1 µM): 1.86%
viability, T/C (second compound 1 µM, first compound 0.00316 µM): 72.3%
viability, T/C (second compound 1 µM, first compound 0.01 µM): 27.6%
viability, T/C (second compound 1 µM, first compound 0.0316 µM): 17.8%
viability, T/C (second compound 1 µM, first compound 0.1 µM): 11.6%
viability, T/C (second compound 1 µM, first compound 0.316 µM): 8.01%
viability, T/C (second compound 1 µM, first compound 1 µM): 3.34%
viability, T/C (second compound 3.16 µM, first compound 0.00316 µM): 65%
viability, T/C (second compound 3.16 µM, first compound 0.01 µM): 24.6%
viability, T/C (second compound 3.16 µM, first compound 0.0316 µM): 15.9%
viability, T/C (second compound 3.16 µM, first compound 0.1 µM): 7.79%
viability, T/C (second compound 3.16 µM, first compound 0.316 µM): 4.6%
viability, T/C (second compound 3.16 µM, first compound 1 µM): 2.43%
viability, T/C (second compound 10 µM, first compound 0.00316 µM): 52.9%
viability, T/C (second compound 10 µM, first compound 0.01 µM): 20.5%
viability, T/C (second compound 10 µM, first compound 0.0316 µM): 9.74%
viability, T/C (second compound 10 µM, first compound 0.1 µM): 5.15%
viability, T/C (second compound 10 µM, first compound 0.316 µM): 3.07%
viability, T/C (second compound 10 µM, first compound 1 µM): 1.56%

CC(C)CC(NC(=O)C(Cc1ccccc1)NC(=O)c1cnccn1)B(O)O (configuration not stated)
viability, T/C (compound 0.000316 µM): 96.1% and 106%
viability, T/C (compound 0.001 µM): 102% and 107%
viability, T/C (compound 0.00316 µM): 92.5% and 93.3%
viability, T/C (compound 0.01 µM): 47.3% and 51.2%
viability, T/C (compound 0.0316 µM): 5.97% and 5.35%
viability, T/C (compound 0.1 µM): 2.36% and 0.51%
IC50 (curve of compound): 9.31 nM and 9.96 nM
